Results reported in patent US20240262727A1, “METHOD FOR IMPROVING BIOLOGICAL NITROGEN REMOVAL EFFECT OF LOW-TEMPERATURE SEWAGE” (Sichuan University, priority 2023, published 2024).

Columns and labels:
[1] = system: microbial community of the activated sludge; test: High-throughput sequencing / metagenomics of SBR activated sludge (microbial community and functional genes); settings: for relative content of Nakamurella (nitrifying bacteria): 17.46% without
Protocol: After the treatment effect was stable, high-throughput sequencing was conducted on the activated sludge to analyze a composition of the microbial community. […] The increased abundance of functional bacteria and functional genes in the activated sludge SBR reactor improved the nitrogen removal effect of this reactor.

[2] = system: activated sludge and biofilm phases; test: EPS and ATP of the activated sludge and biofilm phases of the MBBR
Protocol: The EPS concentration in the sludge phase was 46.12±4.8 mg/g·VSS, and the intracellular ATP was 1273.11±5.4 ngATP/mL; the EPS concentration in the biofilm phase was 53.34±3.7 mg/g. VSS, and the microbial activity concentration of a single filler was 20.67±0.22 ngATP/piece.

[3] = system: activated sludge-biofilm composite system; test: Activated sludge-biofilm composite MBBR reactor at 6° C., pollutant removal efficiency; settings: 100 μg/L, HRT 18 h
biofilm on the filler = test: Single biofilm MBBR at low temperature (sludge discharged on 18th day), pollutant removal and community structure
Protocol: (§1) The C4-HSL with a concentration of 100 μg/L was added to the influent. The rest steps were the same as those in Example 5.
The hydraulic retention time was 18 h, the rest steps were the same as those Example 1, and the COD removal efficiency was 85%; after the reactor was drained of sludge, the nitrification effect dropped sharply.

[4] = system: biofilm / quorum quenching bacteria; test: Biofilm MBBR reactor at 22° C., microbial community structure; settings: 100 μg/L
Protocol: The sludge was discharged on the 12th day after the biofilm was successfully formed on the filler. The C4-HSL with a concentration of 100 μg/L was added to the influent. The rest steps were the same as those in Example 5.
The high concentration of C4-HSL allowed the quorum quenching bacteria to grow at a suitable temperature (22±1° C.), stimulating quorum quenching and inhibiting the attachment and growth of microorganisms to the filler.

[5] = system: activated sludge-biofilm composite system; test: Activated sludge-biofilm composite MBBR reactor at 6° C., pollutant removal efficiency
Protocol: (2) The hydraulic retention time was 20 h, and an effluent from the reactor was collected to detect the pollutant removal efficiency. After a short period of adaptation, the COD concentration in the reactor effluent dropped below 50 mg/L, and the removal efficiency was always maintained at 85%. After adding the C4-HSL, the nitrogen removal effect gradually became more prominent. On the 16th day, the effluent ammonia-nitrogen concentration dropped below 8 mg/L (a maximum allowable emission concentration of ammonia-nitrogen from most urban sewage treatment plants at a water temperature of below 12° C.) to 6.77 mg/L, and the removal efficiency was 71.86%. On the 51st day, the ammonia-nitrogen concentration in the effluent dropped to almost 0, and the removal efficiency was greater than 99%.
There were three stages: increasing COD from 160 mg/L to 500 mg/L (260, 400, 500 mg/L); increasing ammonia-nitrogen concentration from 25 mg/L to 75 mg/L (40, 65, 75 mg/L); increasing TP from 2 mg/L to 8.5 mg/L (4, 6, 8.5 mg/L).
as §1

activated sludge [6] = test: Activated sludge SBR reactor, biological nitrogen removal with added AHLs signal molecule
Protocol: A system to be treated was cooled to 10° C., and an activated sludge SBR reactor was adopted with an effective volume of 1 L and an MLSS of 4,000 mg/L.
Incoming influent: COD: 250 mg/L, ammonia-nitrogen concentration (NH4^+—N): 30 mg/L, TP: 1.5 mg/L, pH=7-8.
12 h was an operation cycle, including 2.5 h of anoxic phase, 8 h of aerobic phase, and 1.5 h of standing. The anoxic phase had dissolved oxygen (DO) maintained below 0.5 mg/L, and the aerobic phase had DO>2.5 mg/L.
An N-butanoyl-homoserine lactone stock solution with a concentration of 10 mg/L, which was added every 2 operation cycles following the influent.
This example differed from Example 1 in that the treatment system was cooled to 7° C., and after the operation was stable, the water temperature was further lowered to 4° C.

activated sludge [7] = test: as above; settings: for MLSS lower than that of the control group (without C4-HSL added): 4° C.; for MLSS of the reactor lower than that of the control group (without C4-HSL): after stable operation
[8] = 40 μg/L, 6° C., after treatment effect stable
[9] = 100 μg/L, 6° C., after treatment effect stable
[10] = 100 μg/L, after raising influent in three stages
[11] = 100 μg/L, after reactor drained of sludge
[12] = room temperature, 0, 10, 100 μg/L, after 74 cycles

CCCC(=O)N[C@H]1CCOC1=O [C4-HSL, N-butanoyl-L-homoserine lactone]
abundance of CS gene (TCA cycle) ([1]; 10 μg/L, 10° C.): 0.017% | abundance of complete nitrifying bacterium Nitrospira ([1]; 10 μg/L, 10° C.): 0.100% | abundance of decomposition genes related to QS ([1]; 10 μg/L, 10° C.): 1.92% | abundance of denitrifying bacterium Dechloromonas ([1]; 10 μg/L, 10° C.): 0.246% | abundance of denitrifying bacterium Denitratisoma ([1]; 10 μg/L, 10° C.): 0.189% | abundance of fum gene (TCA cycle) ([1]; 10 μg/L, 10° C.): 0.018% | abundance of regulatory genes related to QS ([1]; 10 μg/L, 10° C.): 2.40% | abundance of sdh gene (TCA cycle) ([1]; 10 μg/L, 10° C.): 0.030% | abundance of transport genes related to QS ([1]; 10 μg/L, 10° C.): 7.75% | abundance of ammonia-oxidizing bacterium MND1 ([1]; 10 μg/L, 10° C. (Example 1)): 0.007% | share of complete nitrification process in nitrogen metabolism ([1]; 10 μg/L, 10° C., metagenomic): 12.53% | abundance of CS gene (TCA cycle) ([1]; 100 μg/L, 10° C.): 0.021% | abundance of Nitrospira ([1]; 100 μg/L, 10° C.): 0.222% | abundance of ammonia-oxidizing bacterium MND1 ([1]; 100 μg/L, 10° C.): 0.005% | abundance of decomposition genes related to QS ([1]; 100 μg/L, 10° C.): 2.50% | abundance of fum gene (TCA cycle) ([1]; 100 μg/L, 10° C.): 0.021% | abundance of heterotrophic nitrifying-aerobic denitrifying bacterium (Microbacterium) ([1]; 100 μg/L, 10° C.): 0.463% | abundance of mdh gene (TCA cycle) ([1]; 100 μg/L, 10° C.): 0.011% | abundance of nitrification gene nxr ([1]; 100 μg/L, 10° C.): 0.027% | abundance of nitrogen removal gene nirK ([1]; 100 μg/L, 10° C.): 0.015% | abundance of regulatory genes related to QS ([1]; 100 μg/L, 10° C.): 2.98% | abundance of sdh gene (TCA cycle) ([1]; 100 μg/L, 10° C.): 0.040% | abundance of transport genes related to QS ([1]; 100 μg/L, 10° C.): 9.22% | share of complete nitrification process in nitrogen metabolism ([1]; 100 μg/L, 10° C.): 13.82% | total abundance of 11 species of denitrifying bacteria ([1]; 100 μg/L, 10° C.): 16.53% | abundance of ammonia-oxidizing bacterium Ellin6067 ([1]; 100 μg/L, 10° C. (Example 2)): 0.393% | relative abundance of Arthrobacter, Nakamurella, Micrococcaceae and Nitrosomonas ([1]; 4° C., after system stable): promoted the increase | relative abundance of TM7a, Nakamurella, Tessaracoccus and Ferruginibacter ([1]; 7° C., after system stabilized): increased | effect on Actinobacteriota and Gemmatimonadota ([1]; room temperature): inhibition at low concentrations and promotion at high concentrations | relative content of Nakamurella (nitrifying bacteria) ([1]; room temperature, high-concentration C4-HSL): 20.79% | relative content of Nakamurella (nitrifying bacteria) ([1]; room temperature, low-concentration C4-HSL): 16.66% | growth and reproduction of Patescibacteria ([1]; room temperature, effect increased with concentration): promote | growth of Proteobacteria and Bacteroidota (phylum level) ([1]; room temperature, stronger at higher concentration): inhibited | EPS concentration in the biofilm phase [2, 8]: 53.34±3.7 mg/g. VSS | EPS concentration in the sludge phase [2, 8]: 46.12±4.8 mg/g·VSS | intracellular ATP (sludge phase) [2, 8]: 1273.11±5.4 ngATP/mL | microbial activity concentration of a single filler [2, 8]: 20.67±0.22 ngATP/piece | EPS concentration in the activated sludge phase ([2]; 40 μg/L, third stage influent): 127.07±4.5 mg/g·VSS | EPS concentration in the biofilm phase ([2]; 40 μg/L, third stage influent): 113.70±2.59 mg/g. VSS | intracellular ATP (sludge phase) ([2]; 40 μg/L, third stage influent): 1709.78±4.1 ngATP/mL | microbial activity concentration of a single filler ([2]; 40 μg/L, third stage influent): 113.99±0.67 ngATP/mL | EPS concentration in activated sludge phase [2, 9]: 80.62±3.1 mg/g·VSS | EPS concentration in biofilm phase [2, 9]: 96.74±2.8 mg/g·VSS | intracellular ATP (sludge phase) [2, 9]: 2441.01±7.2 ngATP/mL | microbial activity concentration of a single filler [2, 9]: 26.56±0.42 ngATP/piece | EPS concentration in activated sludge phase [2, 10]: 380.38±5.7 mg/g·VSS | EPS concentration in biofilm phase [2, 10]: 235.18±3.5 mg/g·VSS | intracellular ATP (sludge phase) [2, 10]: 5868.42±8.9 ngATP/mL | microbial activity concentration of a single filler [2, 10]: 113.99±0.67 ngATP/mL | ammonia-nitrogen removal efficiency ([3]; 5th day): 77.43% | effluent ammonia-nitrogen concentration ([3]; 5th day (Example 6)): 5.85 mg/L | ammonia-nitrogen removal efficiency ([3]; 12th day): greater than 99% | COD removal efficiency (biofilm on the filler; 100 μg/L, HRT 18 h, sludge discharged on 18th day (Comparative Example 7)): 85% | ammonia-nitrogen removal efficiency (biofilm on the filler; [11]): 40% | effluent ammonia-nitrogen concentration (biofilm on the filler; [11]): 12 mg/L | growth and enrichment of Bacteroidetes and Actinobacteria on the filler (biofilm on the filler; low temperature conditions): beneficial to promote the growth and enrichment | nitrification effect of a single biofilm system (biofilm on the filler; low temperature, single biofilm system): could not quickly improve | colonization and growth of biofilm ([4]; 22° C.): inhibited | growth of quorum quenching bacteria ([4]; 22° C. (Comparative Example 8)): promoted | ammonia-nitrogen removal efficiency ([5]; 40 μg/L, 6° C., 16th day): 71.86% | effluent ammonia-nitrogen concentration ([5]; 40 μg/L, 6° C., 16th day, influent 25 mg/L): 6.77 mg/L | ammonia-nitrogen concentration in the effluent ([5]; 40 μg/L, 6° C., 51st day): ~0 | ammonia-nitrogen removal efficiency ([5]; 40 μg/L, 6° C., 51st day): greater than 99% | COD removal efficiency ([5]; 40 μg/L, 6° C., HRT 20 h): 85% | COD concentration in the reactor effluent ([5]; 40 μg/L, 6° C., HRT 20 h, influent COD 160 mg/L (Example 5)): below 50 mg/L | effluent COD concentration ([5]; 40 μg/L, 6° C., third stage influent COD 500, ammonia-nitrogen 75, TP 8.5 mg/L, 234th day): below 50 mg/L | TN removal efficiency ([5]; 40 μg/L, third stage influent): not less than 80% | effluent total nitrogen (TN) concentration ([5]; 40 μg/L, third stage influent): 12 mg/L | COD removal efficiency ([5]; 40 μg/L, third stage influent, 234th day): 95% | effluent ammonia-nitrogen removal efficiency ([5]; 100 μg/L, after raising influent in three stages (COD 500, ammonia-nitrogen 75, TP 8.5 mg/L)): not less than 99% | average NH4+—N removal efficiency (activated sludge [6]; 10 μg/L, 4° C. (Example 3)): 99.3% | MLSS lower than that of the control group (without C4-HSL added) (activated sludge [6]; 10 μg/L, 7° C.): 22% | average NH4+—N removal efficiency (activated sludge [6]; 10 μg/L, 7° C., after stabilization (Example 3)): 96.9% | MLSS lower than that of the control group (without C4-HSL added) (activated sludge [6]; 100 μg/L, 7° C.): 19% | average NH4+—N removal efficiency (activated sludge [6]; 100 μg/L, 7° C., after stabilization (Example 4)): 96.3% | COD removal efficiency (activated sludge [7]; 10 μg/L added every 2 cycles, 10° C. (Example 1)): 90% | MLSS lower than that of the control group (without C4-HSL added) (activated sludge [7]; 10 μg/L): 40% | TN average effluent concentration (activated sludge [7]; 10 μg/L, 10° C. (Example 1)): 11.40 mg/L | average NH4+—N removal efficiency (activated sludge [7]; 10 μg/L, 10° C. (Example 1)): 99.69% | cycles after which TN removal efficiency reached stability (activated sludge [7]; 10 μg/L, 10° C. (Example 1)): 27 cycles | TN average removal efficiency (activated sludge [7]; 10 μg/L, 10° C., after stability (Example 1)): 64.97% | MLSS of the reactor lower than that of the control group (without C4-HSL) (activated sludge [7]; 10 μg/L, 10° C.): 2% | MLSS lower than that of the control group (without C4-HSL added) (activated sludge [7]; 100 μg/L): 38% | average NH4+—N removal efficiency (activated sludge [7]; 100 μg/L, 4° C. (Example 4)): 98.8% | TN average effluent concentration (activated sludge [7]; 100 μg/L, 10° C.): 12.86 mg/L | cycles after which TN removal efficiency reached stability (activated sludge [7]; 100 μg/L, 10° C.): 27 cycles | COD removal efficiency (activated sludge [7]; 100 μg/L, 10° C. (Example 2)): 90% | average NH4+—N removal efficiency (activated sludge [7]; 100 μg/L, 10° C. (Example 2)): 99.85% | TN average removal efficiency (activated sludge [7]; 100 μg/L, 10° C., after stability): 60.46% | MLSS of the reactor lower than that of the control group (without C4-HSL) (activated sludge [7]; 100 μg/L, 10° C.): 12% | TN removal efficiency and NH4+—N removal efficiency compared with not adding C4-HSL (activated sludge [7]; low temperatures, Example 1 vs Comparative Example 1, FIG. 1 and 2): significantly improved | effect of adding C4-HSL on the nitrogen removal effect (activated sludge [7]; room temperature): little effect | ammonia-nitrogen removal efficiency (activated sludge [7]; [12]): not less than 99% | effluent TN (activated sludge [7]; [12]): not more than 15 mg/L | effluent ammonia-nitrogen concentration (activated sludge [7]; [12]): around 0.1 mg/L | removal efficiency of COD (activated sludge [7]; [12]): not less than 90%
